Experimental data from ChEMBL document CHEMBL1201862, “PubChem BioAssay data set” (2004).
Where a name gives a salt, the structure may show the parent alone.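 Cells were grown in 96-well plates and exposed to each compound for 48 hours at five concentrations; endpoints were interpolated linearly between bracketing concentrations, or set to the highest concentration if not reached. GI50 is the concentration that inhibits growth by half.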 The source made the active and inactive calls. Cut-off read from the data, not from the text of the source: active = GI50 up to about 1.1 µM and inactive = higher.

What was measured:
Experiment in all cases: DTP human tumour cell line panel, 48 h
SF-268 = tested on: SF-268
NCI-H226 = tested on: NCI-H226
SNB-75 = tested on: SNB-75
CAKI-1 = tested on: CAKI-1
A549 = tested on: A549
HCT-15 = tested on: HCT-15
786-0 = tested on: 786-0
HT-29 = tested on: HT-29
SF-539 = tested on: SF-539
UO-31 = tested on: UO-31
SR = tested on: SR
SN12C = tested on: SN12C
Malme-3M = tested on: Malme-3M
U-251 = tested on: U-251

Compound	GI50 (SF-268)	GI50 (NCI-H226)	GI50 (SNB-75)	GI50 (CAKI-1)	GI50 (A549)	GI50 (HCT-15)	GI50 (786-0)	GI50 (HT-29)	GI50 (SF-539)	GI50 (UO-31)	GI50 (SR)	GI50 (SN12C)	GI50 (Malme-3M)	GI50 (U-251)
COc1ccc2c(c1)C(O)(C(F)(F)F)c1cc(C(=O)C(F)(F)F)c3ccccc3c1N2 (stereo unspecified)	10.2 µM (inactive)	12.8 µM (inactive)	16.9 µM (inactive)	13.7 µM (inactive)	11.6 µM (inactive)	7.35 µM	13.5 µM (inactive)	7.73 µM (inactive)	16.3 µM (inactive)	9.86 µM (inactive)	–	–	–	–
COC(=O)/C=C(\C(=O)OC)c1c2c3c(cc(OC)c(OC)c3c3ccccc13)CCN2C	> 100 µM (inactive)	29.6 µM (inactive)	66.8 µM (inactive)	–	24.4 µM (inactive)	22.3 µM	70.8 µM (inactive)	38.5 µM (inactive)	27.5 µM (inactive)	46.2 µM (inactive)	26.1 µM (inactive)	58.6 µM (inactive)	33.7 µM (inactive)	39 µM (inactive)
CCOC(=O)C12CCCC1(O)N(NC(=O)c1ccccc1)C(C)=C2C(=O)OC (stereo unspecified)	> 100 µM (inactive)	> 100 µM (inactive)	–	> 100 µM (inactive)	> 100 µM (inactive)	> 100 µM	> 100 µM (inactive)	> 100 µM (inactive)	> 100 µM (inactive)	> 100 µM (inactive)	–	> 100 µM (inactive)	> 100 µM (inactive)	> 100 µM (inactive)
CC(C)CC12CC3CCC(CNC1=O)C32C (stereo unspecified)	> 100 µM (inactive)	> 100 µM (inactive)	> 100 µM (inactive)	> 100 µM (inactive)	> 100 µM (inactive)	–	> 100 µM (inactive)	72.9 µM (inactive)	> 100 µM (inactive)	> 100 µM (inactive)	63.7 µM (inactive)	> 100 µM (inactive)	> 100 µM (inactive)	> 100 µM (inactive)
COc1ccc2[nH]c3c(cnn4cnnc34)c2c1	> 100 µM (inactive)	–	> 100 µM (inactive)	> 100 µM (inactive)	> 100 µM (inactive)	> 100 µM	> 100 µM (inactive)	> 100 µM (inactive)	> 100 µM (inactive)	> 100 µM (inactive)	–	> 100 µM (inactive)	> 100 µM (inactive)	> 100 µM (inactive)
NC(=O)NNC(=O)NC12CC3CC(CC(C3)C1)C2	> 100 µM (inactive)	> 100 µM (inactive)	> 100 µM (inactive)	> 100 µM (inactive)	> 100 µM (inactive)	> 100 µM	> 100 µM (inactive)	> 100 µM (inactive)	> 100 µM (inactive)	> 100 µM (inactive)	–	> 100 µM (inactive)	> 100 µM (inactive)	> 100 µM (inactive)
COc1nc(NC2OC(COC(C)=O)C(OC(C)=O)C(OC(C)=O)C2OC(C)=O)c2c(OC(C)=O)c(C)c(=O)oc2n1 (stereo unspecified)	–	> 100 µM (inactive)	> 100 µM (inactive)	> 100 µM (inactive)	> 100 µM (inactive)	> 100 µM	> 100 µM (inactive)	> 100 µM (inactive)	> 100 µM (inactive)	> 100 µM (inactive)	–	> 100 µM (inactive)	> 100 µM (inactive)	> 100 µM (inactive)
COC1CC(OC)C(O)C(CO)O1 (stereo unspecified)	–	–	> 100 µM (inactive)	–	> 100 µM (inactive)	> 100 µM	> 100 µM (inactive)	> 100 µM (inactive)	> 100 µM (inactive)	> 100 µM (inactive)	> 100 µM (inactive)	> 100 µM (inactive)	> 100 µM (inactive)	> 100 µM (inactive)
CCCCN(CC)C(=O)C(=O)Cc1nc2ccc(C(=O)c3ccccc3)cc2nc1O	> 100 µM (inactive)	> 67.9 µM (inactive)	25.8 µM (inactive)	54.3 µM (inactive)	> 100 µM (inactive)	67.1 µM	> 100 µM (inactive)	57.5 µM (inactive)	98.9 µM (inactive)	33.3 µM (inactive)	21.6 µM (inactive)	> 86.1 µM (inactive)	–	73.1 µM (inactive)
CCOC(=O)c1sc2c(C(=O)OCC)n3cc(C)cc(C)c3c2c1O	> 100 µM (inactive)	> 100 µM (inactive)	58.7 µM (inactive)	> 100 µM (inactive)	> 100 µM (inactive)	–	> 100 µM (inactive)	> 100 µM (inactive)	> 100 µM (inactive)	> 100 µM (inactive)	> 100 µM (inactive)	> 100 µM (inactive)	> 100 µM (inactive)	> 100 µM (inactive)
O=C1CCC(=O)C1=NNc1cc(Cl)cc(Cl)c1	> 100 µM (inactive)	> 100 µM (inactive)	> 100 µM (inactive)	> 100 µM (inactive)	> 100 µM (inactive)	55.8 µM	> 100 µM (inactive)	> 100 µM (inactive)	> 100 µM (inactive)	> 100 µM (inactive)	–	> 100 µM (inactive)	> 100 µM (inactive)	69.2 µM (inactive)
CN(C)c1ccc(/C=c2\sc3nnc(-c4ccco4)n3c2=O)cc1	> 100 µM (inactive)	> 100 µM (inactive)	31.6 µM (inactive)	> 100 µM (inactive)	> 100 µM (inactive)	–	> 100 µM (inactive)	–	> 100 µM (inactive)	> 100 µM (inactive)	–	> 100 µM (inactive)	> 100 µM (inactive)	57.8 µM (inactive)
COC(=O)C1=CO[C@@H](C)[C@@H]2Cn3ccc4c5ccccc5nc-4c3C[C@H]12 [ALSTONINE HYDROCHLORIDE]	> 100 µM (inactive)	> 100 µM (inactive)	> 100 µM (inactive)	–	> 100 µM (inactive)	> 100 µM	> 100 µM (inactive)	> 100 µM (inactive)	> 100 µM (inactive)	> 100 µM (inactive)	–	> 100 µM (inactive)	> 100 µM (inactive)	> 100 µM (inactive)
O=C1Cc2c([nH]c3ccccc23)-c2cc(Br)ccc2N1	> 100 µM (inactive)	> 100 µM (inactive)	> 100 µM (inactive)	> 100 µM (inactive)	> 100 µM (inactive)	> 100 µM	> 100 µM (inactive)	> 100 µM (inactive)	> 100 µM (inactive)	> 100 µM (inactive)	–	> 100 µM (inactive)	> 100 µM (inactive)	> 100 µM (inactive)
Nc1nc(NCCO)c(N=O)c(=O)[nH]1	> 100 µM (inactive)	> 100 µM (inactive)	> 100 µM (inactive)	> 100 µM (inactive)	> 100 µM (inactive)	> 100 µM	> 100 µM (inactive)	> 100 µM (inactive)	> 100 µM (inactive)	> 100 µM (inactive)	–	> 100 µM (inactive)	> 100 µM (inactive)	> 100 µM (inactive)
O=C(Cc1c(C(=O)Nc2ccccc2)sc(C(=O)Nc2ccccc2)c1CC(=O)Nc1ccccc1)Nc1ccccc1	0.446 µM (active)	> 100 µM (inactive)	> 100 µM (inactive)	> 100 µM (inactive)	> 100 µM (inactive)	–	> 100 µM (inactive)	> 100 µM (inactive)	> 100 µM (inactive)	> 100 µM (inactive)	–	> 100 µM (inactive)	> 100 µM (inactive)	> 100 µM (inactive)
